Test [1] concerns the target T1, NLuc-PTHR1 (Homo sapiens, UniProt Q03431).
T1 sequence (Q03431 27-593): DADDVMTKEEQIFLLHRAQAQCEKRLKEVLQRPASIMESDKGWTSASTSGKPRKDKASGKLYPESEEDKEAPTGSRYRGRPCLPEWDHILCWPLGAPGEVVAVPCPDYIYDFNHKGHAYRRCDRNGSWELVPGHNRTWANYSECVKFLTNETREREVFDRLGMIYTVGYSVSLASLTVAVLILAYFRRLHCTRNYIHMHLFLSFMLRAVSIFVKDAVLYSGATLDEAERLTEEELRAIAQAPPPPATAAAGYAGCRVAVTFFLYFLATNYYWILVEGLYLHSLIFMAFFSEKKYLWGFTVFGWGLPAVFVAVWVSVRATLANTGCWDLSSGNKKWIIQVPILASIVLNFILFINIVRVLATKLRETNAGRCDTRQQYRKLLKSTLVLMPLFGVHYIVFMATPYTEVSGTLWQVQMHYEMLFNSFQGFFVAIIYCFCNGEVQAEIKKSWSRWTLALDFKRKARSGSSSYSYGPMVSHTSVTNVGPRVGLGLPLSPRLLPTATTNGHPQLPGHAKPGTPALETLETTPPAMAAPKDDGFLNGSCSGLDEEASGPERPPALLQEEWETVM
The test can be described thus: NLuc-PTHR1 competition binding.

Test [2] has as its target T2, PTHR1 (Homo sapiens, UniProt Q03431).
T2 sequence (Q03431 27-593): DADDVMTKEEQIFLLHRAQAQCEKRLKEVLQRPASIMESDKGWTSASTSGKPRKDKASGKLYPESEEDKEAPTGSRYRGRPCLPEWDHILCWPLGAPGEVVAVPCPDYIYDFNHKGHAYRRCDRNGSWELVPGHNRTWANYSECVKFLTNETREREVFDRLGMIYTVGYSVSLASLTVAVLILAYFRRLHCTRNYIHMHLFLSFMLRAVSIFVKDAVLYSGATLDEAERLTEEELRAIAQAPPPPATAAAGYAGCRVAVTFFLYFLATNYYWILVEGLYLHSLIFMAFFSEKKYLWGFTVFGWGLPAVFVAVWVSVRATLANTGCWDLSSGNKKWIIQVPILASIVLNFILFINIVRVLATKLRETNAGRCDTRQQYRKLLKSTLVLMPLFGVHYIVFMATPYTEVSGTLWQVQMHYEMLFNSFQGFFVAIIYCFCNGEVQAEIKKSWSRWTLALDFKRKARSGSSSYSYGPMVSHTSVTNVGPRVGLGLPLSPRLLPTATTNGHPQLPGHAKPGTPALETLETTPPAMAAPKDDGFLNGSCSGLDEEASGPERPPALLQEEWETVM
The test can be described thus: β-arrestin-1 recruitment to the PTHR1. Type of test: cell-based.

In test [3] the target is T2, PTHR1. The test can be described thus: β-arrestin-2 recruitment to the PTHR1. Type of test: cell-based. On the technique in general: Arrestin recruitment assays detect the binding of arrestin to an activated receptor.
The test system of test [4] is PTHR1. The test can be described thus: PTHR1 cAMP washout assay. The class given is cell-based. The settings on record: 10 nM agonist for 20 min, then PTHR1 antagonist PTH(7-34) introduced.
For test [5], the target named is PTHR2 (Homo sapiens, UniProt P49190). The test can be described thus: PTHR2 activation via cAMP production. Type of test: cell-based.
Sequence of PTHR2 (P49190 25-550, species assumed): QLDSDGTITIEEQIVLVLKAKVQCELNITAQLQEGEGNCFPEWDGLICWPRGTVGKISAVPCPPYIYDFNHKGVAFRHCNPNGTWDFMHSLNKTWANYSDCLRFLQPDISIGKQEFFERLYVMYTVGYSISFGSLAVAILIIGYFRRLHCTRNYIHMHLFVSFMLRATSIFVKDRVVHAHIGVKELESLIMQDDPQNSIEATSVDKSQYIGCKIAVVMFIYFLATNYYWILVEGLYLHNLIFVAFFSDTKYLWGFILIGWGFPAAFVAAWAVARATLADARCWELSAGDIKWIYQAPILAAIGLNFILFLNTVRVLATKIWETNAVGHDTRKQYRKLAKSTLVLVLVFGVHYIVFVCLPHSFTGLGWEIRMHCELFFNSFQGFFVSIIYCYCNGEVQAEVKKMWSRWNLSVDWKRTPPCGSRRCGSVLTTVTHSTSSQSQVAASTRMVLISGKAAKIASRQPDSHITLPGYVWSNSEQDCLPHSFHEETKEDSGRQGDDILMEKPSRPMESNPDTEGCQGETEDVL
Test [6] has as its target T2, PTHR1. The test can be described thus: PTHR1 activation via cAMP production. Type of test: cell-based. Background: Cyclic AMP is a second messenger, typically raised through Gs and lowered through Gi signalling.
For test [7], the target named is NLuc-PTHR1 (UniProt Q03431).
The target of test [8] is NLuc-PTHR1 (UniProt Q03431). The test can be described thus: FRET or BRET.
The target of test [9] is T3, PTHR1-RLuc8 (UniProt Q03431 27-593).
T3 sequence (looked up): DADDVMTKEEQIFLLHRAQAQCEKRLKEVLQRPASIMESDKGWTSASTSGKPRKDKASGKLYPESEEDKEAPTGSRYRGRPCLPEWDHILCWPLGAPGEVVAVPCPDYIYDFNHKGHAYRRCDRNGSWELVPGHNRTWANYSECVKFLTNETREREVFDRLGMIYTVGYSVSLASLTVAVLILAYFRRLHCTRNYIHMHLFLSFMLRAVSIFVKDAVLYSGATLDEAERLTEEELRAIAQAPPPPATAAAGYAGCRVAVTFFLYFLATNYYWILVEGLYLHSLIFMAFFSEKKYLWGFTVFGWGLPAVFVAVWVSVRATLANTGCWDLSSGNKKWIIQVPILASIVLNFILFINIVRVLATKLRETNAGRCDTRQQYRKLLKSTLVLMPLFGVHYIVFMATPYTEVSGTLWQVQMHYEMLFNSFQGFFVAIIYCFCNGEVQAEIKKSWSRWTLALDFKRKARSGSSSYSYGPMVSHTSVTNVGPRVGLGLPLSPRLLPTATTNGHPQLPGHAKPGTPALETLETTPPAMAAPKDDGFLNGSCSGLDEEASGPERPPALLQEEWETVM
The test can be described thus: FRET or BRET. For orientation: BRET reads energy transfer from a luciferase to a nearby fluorophore.

*1 amine or outer side, *2 acyl side, *3 side chain or, on linkers, in order; H or OH if unused. Where a SMILES comes first, the peptide text is derived from it. [ ]: non-standard residue; d: D form. X1 = CC(C)C[C@@H](CCC(=O)[*:2])N[*:1]; β3hN = NC(=O)C[C@H](N)CC(=O)O

One may read the IC50 as the midpoint of a concentration-inhibition curve. The EC50 is the concentration at which the effect is half-maximal. Read a low EC50 as a more potent agent.

`CC[C@H](C)[C@H](NC(=O)[C@H](CCC(=O)O)NC(=O)[C@H](CO)NC(=O)[C@@H](NC(=O)[C@@H](N)CO)C(C)C)C(=O)N[C@@H](CCC(N)=O)C(=O)N[C@@H](CC(C)C)C(=O)N[C@@H](CCSC)C(=O)N[C@@H](Cc1c[nH]cn1)C(=O)N[C@@H](CC(N)=O)CC(=O)N[C@H](CCC(=O)N[C@@H](CCCCN)C(=O)N[C@@H](Cc1c[nH]cn1)C(=O)N[C@@H](CC(C)C)C(=O)N[C@@H](CC(N)=O)C(=O)N[C@@H](CO)C(=O)N[C@@H](CCSC)C(=O)N[C@@H](CCC(=O)O)C(=O)N[C@@H](CCCNC(=N)N)C(=O)N[C@H](C(=O)N[C@@H](CCC(=O)O)C(=O)N[C@@H](Cc1c[nH]c2ccccc12)C(=O)N[C@@H](CC(C)C)C(=O)N[C@@H](CCCNC(=N)N)C(=O)N[C@@H](CCCCN)C(=O)N[C@@H](CCCCN)C(=O)N[C@@H](CC(C)C)C(=O)N[C@@H](CCC(N)=O)C(=O)N[C@@H](CC(=O)O)C(=O)N[C@H](C(=O)N[C@@H](Cc1c[nH]cn1)C(=O)N[C@@H](CC(N)=O)C(=O)N[C@@H](Cc1ccccc1)C(N)=O)C(C)C)C(C)C)CC(C)C` [Peptide 1] (H-SVSEIQLMH[β3hN][X1]KHLNSMERVEWLRKKLQDVHNF-NH2; N-terminus assumed): the half-inhibitory concentration (IC50) in test [1] was 126 nM. The concentration giving a half-maximal response (EC50) in test [2] is 100 nM; in test [3], 100 nM; in test [5], 31.6 nM; in [6] it was 2.51 nM. For the same molecule, the “PTHR1 β-arrestin-1 Recruitment % Max” value in [2] (normalized against PTH(1-34), ≥4 independent experiments, ± SEM) was determined as 27 ± 3%. Moreover, in test [3] (normalized against PTH(1-34), ≥3 independent experiments, ± SEM), the “PTHR1 β-arrestin-2 Recruitment % Max” value was 21 ± 4%. In [4], the “AUC of post-washout PTHR1 cAMP, lower compared to PTH(1-34)” value was ~ 40%. For the same molecule, in [5] (maximal response normalized against PTH(1-34), ≥4 independent experiments, ± SEM), the “PTHR2 cAMP Production % Max” value worked out at 76 ± 3%. For the same molecule, the “PTHR1 cAMP Production % Max” value in test [6] (maximal response normalized against PTH(1-34), 4 independent experiments, ± SEM) stood at 116 ± 6%.

In the case of PTH(1-34) (peptide), the PTHR1 cAMP production, % Max in [7] turned out to be 102%. The molecule further returned a half-maximal inhibitory concentration (IC50) in [8] of 22 nM.

B1: β-arrestin-1-Venus (natural protein, UniProt P49407 1-418, looked up)
chain: MGDKGTRVFKKASPNGKLTVYLGKRDFVDHIDLVDPVDGVVLVDPEYLKERRVYVTLTCAFRYGREDLDVLGLTFRKDLFVANVQSFPPAPEDKKPLTRLQERLIKKLGEHAYPFTFEIPPNLPCSVTLQPGPEDTGKACGVDYEVKAFCAENLEEKIHKRNSVRLVIRKVQYAPERPGPQPTAETTRQFLMSDKPLHLEASLDKEIYYHGEPISVNVHVTNNTNKTVKKIKISVRQYADICLFNTAQYKCPVAMEEADDTVAPSSTFCKVYTLTPFLANNREKRGLALDGKLKHEDTNLASSTLLREGANREILGIIVSYKVKVKLVVSRGGLLGDLASSDVAVELPFTLMHPKPKEEPPHREVPENETPVDTNLIELDTNDDDIVFEDFARQRLKGMKDDKEEEEDGTGSPQLNNR
Take B1: in [9], the “EC50 of PTH(1-34) for recruitment” value is 7.2 nM, the “EC50 of peptide 1 for recruitment” value stood at 100 nM and the “EC50 of peptide 2 for recruitment” value stood at 190 nM.

Source of the values: paper PMC10588032 (Journal of the American Chemical Society, 2023).
